Measurements as given in patent publication US12422438B2, “Means and methods for single molecule peptide sequencing” (VIB VZW, priority 2017, dated 2025).

T1: T. aquaticus aminopeptidase T (Thermus aquaticus, UniProt P23341)
T1 construct: 6xHis (C); made in house; host or cells: E. coli BL21(DE3), pET24b(+)
T1 sequence (P23341 with tags, fused parts or gaps): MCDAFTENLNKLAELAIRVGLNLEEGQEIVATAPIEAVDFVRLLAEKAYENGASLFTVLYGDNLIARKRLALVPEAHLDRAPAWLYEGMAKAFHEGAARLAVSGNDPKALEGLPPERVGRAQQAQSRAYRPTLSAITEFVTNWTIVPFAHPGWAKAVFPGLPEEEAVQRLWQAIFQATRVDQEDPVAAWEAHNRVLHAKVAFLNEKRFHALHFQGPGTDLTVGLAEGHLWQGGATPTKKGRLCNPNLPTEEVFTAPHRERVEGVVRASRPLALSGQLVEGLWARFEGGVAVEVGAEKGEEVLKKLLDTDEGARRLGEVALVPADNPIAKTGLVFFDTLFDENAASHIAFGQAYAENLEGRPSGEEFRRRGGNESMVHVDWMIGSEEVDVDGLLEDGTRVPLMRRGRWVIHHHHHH


Columns and labels:
[1] = Spontaneous Edman degradation (SPITC-induced cleavage) of amino acid p-nitroanilide substrates; details: 30 min at 40° C., 300 mM triethanolamine in 50% acetonitrile (pH 9)
Experimental: FIG. 16. Spontaneous Edman degradation of different amino acid p-nitroanilide substrates. A. Sulfophenyl isothiocyanate (SPITC, 15 mM) and substrate (1.5 mM) were incubated for 30 min at 40° C. in 300 mM triethanolamine in 50% ACN, after which the released p-nitroanilide was quantified by measuring the absorbance at 405 nm. B. Time-kinetic measurement of SPITC-induced amino acid p-nitroanilide substrate cleavage.
Importantly, this spontaneous cleavage activity is also observed under conditions that are not typically used during the cleavage step in the classic Edman degradation reaction. In classic Edman degradation. ITC coupling is achieved under mild alkaline conditions (pyridine, trimethylamine, N-methylpiperidine) and amino acid cleavage under acidic conditions (trifluoroacetic acid). Here both ITC coupling and amino acid cleavage is achieved under mild alkaline conditions (triethanolamine).

[2] = biological target: T1, T. aquaticus aminopeptidase T; format: biochemical; details: 40° C.; for Km / kcat: PBS; for Km: enzyme 2.0625 μM, substrate 0.0625-2 mM, Lineweaver-Burke plot; for kcat: kcat=Vmax/[E]; for on-time (min) / on-time (s): calculated as 1/kcat
Experimental: (§1) The kinetic parameters from T. aquaticus aminopeptidase T for cleaving different amino acid substrates was determined with a p-nitroanilide assay. Substrates consist of an N-terminal amino acid with a p-nitroanilide attached to its C-terminus. Upon amino acid cleavage, the free nitroanilide can be monitored by measuring the absorbance at 405 nm. T. aquaticus aminopeptidase T as depicted in SEQ ID No 8 was added in a concentration of 2.0625 μM (in PBS) to different concentrations of amino acid p-nitroanilide substrate (0.0625, 0.125, 0.25, 0.5, 1 and 2 mM in PBS). Subsequently p-nitroanilide release was continuously measured at 40° C. with a FLUOstar Omega microplate reader (MBG LabTech). From this, the initial velocity of the reaction at each substrate concentration was derived (v0). For each amino acid, a Lineweaver-Burke plot was generated from which the reaction Vmax and enzyme-substrate KM was determined. The turnover number, kcat, was calculated from the Vmax and the enzyme concentration (kcat=Vmax/[E]). The enzyme on-time value was then calculated by taking the reciprocal from the kcat value. The “on-time” values as shown in Table 1 are calculated as 1/kcat and as such is the overall time needed for an enzyme solution on the peptide until catalysis occurs.
(§2) The assays were performed at 40° C. below the enzyme's temperature optimum. Working more closely to the optimal temperature of 70° C. speeds up the reaction speed (kcat and enzyme on-time). […] The results as shown here not only validate the utility of the aminopeptidase as disclosed herein but also underpin and substantiate the methods and uses disclosed in current application.

[3] = biological target: T1, T. aquaticus aminopeptidase T; assay: Aminopeptidase assay with different amino acid p-nitroanilide substrates at 40° C. and 80° C.; format: biochemical; details: 2 h, PBS, substrate 1.5 mM
Experimental: FIG. 11. Aminopeptidase assay with different amino acid p-nitroanilide substrates. Enzyme and substrate (1.5 mM) were incubated for 2 h at 40° C. or 80° C. in PBS, after which the released p-nitroanilide was quantified by measuring the absorbance at 405 nm.
As described herein and in line with the invention described in current application, the activity differs between different amino acids. At 80° C., the panel of amino acid substrates can be roughly divided in fast-cleaved (L, M, Y, R, F) and slow-cleaved (D, P) substrates. However, at 40° C. it seems like the panel is divided in fast-cleaved (Y, R) and slow-cleaved (D, P), and substrates that lie in between (L, M, F). […] Finally, TagAPT is not only active in the p-nitroanilide assay. […] The N-terminal amino acid from peptides with proline at the second position is not easily cleaved since peptide bonds adjacent to the amino acid proline are resistant to cleavage by most peptidases (Iyver et al. 2015 FEBS Open Bio. 2015 Apr. 2; 5:292-302). In contrast to what Is stated in Minagawa et al (1988 Agricultural and Biological Chemistry 52:1755-1763) we show here that T. aquaticus aminopeptidase T can cleave N-terminal amino acids even when proline is at the second position. This surprising finding greatly enhances the generic use of Tag-APT in the method and uses disclosed in current application and in single molecule peptide sequencing in general.

[4] = substrate: CC(C)C[C@H](N)C(=O)Nc1ccc([N+](=O)[O-])cc1; assay: purified protein, by the assay type; format: biochemical; details: other: 40° C., PBS, enzyme 2.0625 μM, substrate 0.0625-2 mM, Lineweaver-Burke plot
Experimental: as §1, §2

Molecule | cleavage speed category of substrate (endpoint activity measurement) [1] | Km [2] [µM] | kcat [2] [s⁻¹] | on-time (min) [2] [min] | on-time (s) [2] [s] | cleavage speed category of substrate ([3]; 40° C.) | cleavage speed category of substrate ([3]; 80° C.) | Km [4] [µM] | kcat [4] [s⁻¹] | kcat/Km [4] [M⁻¹ s⁻¹]
N[C@@H](Cc1ccc(O)cc1)C(=O)Nc1ccc([N+](=O)[O-])cc1 [Tyr] | fast-cleaved | 211 | 0.00707 | 2.4 | 142 | fast-cleaved | fast-cleaved | – | – | –
NCCCC[C@H](N)C(=O)Nc1ccc([N+](=O)[O-])cc1 [Lys] | – | 193 | 0.00148 | 11.3 | 677 | – | – | – | – | –
C[C@H](N)C(=O)Nc1ccc([N+](=O)[O-])cc1 [Ala] | – | 736 | 0.01167 | 1.4 | 86 | – | – | – | – | –
NC(N)=NCCC[C@H](N)C(=O)Nc1ccc([N+](=O)[O-])cc1 [Arg] | fast-cleaved | 415 | 0.01638 | 1.0 | 61 | fast-cleaved | fast-cleaved | – | – | –
NCC(=O)Nc1ccc([N+](=O)[O-])cc1 [Gly] | – | 765 | 0.00307 | 5.4 | 326 | – | – | – | – | –
N[C@@H](CC(=O)O)C(=O)Nc1ccc([N+](=O)[O-])cc1 [D] | slow-cleaved | – | – | – | – | slow-cleaved | slow-cleaved | – | – | –
CC(C)C[C@H](N)C(=O)Nc1ccc([N+](=O)[O-])cc1 [Leu, L-leucine-p-nitroanilide] | fast-cleaved | – | – | 6.5 | 390 | in between | fast-cleaved | – | – | –
N[C@@H](Cc1ccccc1)C(=O)Nc1ccc([N+](=O)[O-])cc1 [F] | fast-cleaved | – | – | – | – | in between | fast-cleaved | – | – | –
O=C(Nc1ccc([N+](=O)[O-])cc1)[C@@H]1CCCN1 [Pro] | slow-cleaved | 546 | 0.00198 | 8.4 | 504 | slow-cleaved | slow-cleaved | – | – | –
CC(C)[C@H](N)C(=O)Nc1ccc([N+](=O)[O-])cc1 [Val] | – | 192 | 0.00138 | 12.1 | 727 | – | – | – | – | –
CSCC[C@H](N)C(=O)Nc1ccc([N+](=O)[O-])cc1 [Met] | fast-cleaved | 99 | 0.00471 | 3.5 | 212 | in between | fast-cleaved | – | – | –
T. aquaticus aminopeptidase T (Thermus aquaticus) (protein, 6xHis (C); made in house; host or cells: E. coli BL21(DE3), pET24b(+)) MCDAFTENLNKLAELAIRVGLNLEEGQEIVATAPIEAVDFVRLLAEKAYENGASLFTVLYGDNLIARKRLALVPEAHLDRAPAWLYEGMAKAFHEGAARLAVSGNDPKALEGLPPERVGRAQQAQSRAYRPTLSAITEFVTNWTIVPFAHPGWAKAVFPGLPEEEAVQRLWQAIFQATRVDQEDPVAAWEAHNRVLHAKVAFLNEKRFHALHFQGPGTDLTVGLAEGHLWQGGATPTKKGRLCNPNLPTEEVFTAPHRERVEGVVRASRPLALSGQLVEGLWARFEGGVAVEVGAEKGEEVLKKLLDTDEGARRLGEVALVPADNPIAKTGLVFFDTLFDENAASHIAFGQAYAENLEGRPSGEEFRRRGGNESMVHVDWMIGSEEVDVDGLLEDGTRVPLMRRGRWVIHHHHHH | – | – | – | – | – | – | – | 92 | 0.00256 | 27.9
